According to patent US11311523B2, “Pyridinone compound and use thereof” (KYUSHU UNIVERSITY, NATIONAL UNIVERSITY CORPORATION, priority 2015, dated 2022):

Columns and labels:
[1] = target: T1, DHR-2 domain of DOCK1 (Homo sapiens, UniProt Q14185); test: in vitro GEF assay (Bodipy-FL-GTP loading of Rac); type: biochemical
T1 construct: Polypeptide fragments that correspond to the DHR-2 domain of DOCK1, DOCK2, or DOCK5; Histidine-SUMO (N); made in house; host or cells: E. coli Arctic express (DE3)
T1 sequence (Q14185 1207-1617 limits assumed): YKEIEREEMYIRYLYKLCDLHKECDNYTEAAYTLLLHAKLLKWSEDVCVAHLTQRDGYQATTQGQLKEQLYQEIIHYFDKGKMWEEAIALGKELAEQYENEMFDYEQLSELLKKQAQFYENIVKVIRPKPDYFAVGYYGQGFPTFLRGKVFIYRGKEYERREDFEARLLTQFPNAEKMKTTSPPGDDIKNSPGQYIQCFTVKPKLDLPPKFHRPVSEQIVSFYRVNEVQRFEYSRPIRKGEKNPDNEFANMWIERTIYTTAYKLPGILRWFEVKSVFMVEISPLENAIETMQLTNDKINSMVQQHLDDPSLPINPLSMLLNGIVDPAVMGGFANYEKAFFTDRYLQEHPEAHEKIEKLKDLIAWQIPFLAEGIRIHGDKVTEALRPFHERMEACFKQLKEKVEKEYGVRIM
Excerpt: (§1) Pharmacological Test 1 (In Vitro GEF Assay)
(§2) DOCK1, DOCK2, and DOCK5, which are DOCK-A subfamily members, catalyze the GTP-GDP exchange reaction for Rac via the DHR-2 domain to activate Rac.
(§3) The in vitro GEF assay referred to in this specification used a labeled GTP (Bodipy-FL-GTP, Invitrogen), whose fluorescence intensity increases when bound to Rac.
(§4) Polypeptide fragments that correspond to the DHR-2 domain of DOCK1, DOCK2, or DOCK5 were expressed in E. coli Arctic express (DE3) cells as N-terminal Histidine-SUMO tag-fused recombinant proteins and purified by affinity column chromatography on nickel-NTA columns.
(§5) Rac was expressed in E. coli BL21 (DE3) cells as an N-terminal GST tag-fused recombinant protein and purified by affinity column chromatography on glutathione-Sepharose columns.
(§6) Subsequently, a reaction solution A containing 20 mM of MES-NaOH, 150 mM of NaCl, 10 mM of MgCl2, and 20 μM of GDP, and having an adjusted pH of 7.0 was incubated at room temperature for 30 minutes while being protected from light in the presence of each of the polypeptide fragments (DHR-2 domains) prepared above and each pyridinone compound or CPYPP dissolved at a predetermined concentration in DMSO or DMSO alone (control) to thus prepare GEF pretreated products. In all of the samples, the final DMSO concentration was adjusted to 3%.
(§7) Thereafter, 15 μM of Rac prepared above was added to the reaction solution A and directly allowed to stand on ice for 30 minutes to form a GDP-Rac complex.
(§8) Bodipy-FL-GTP was added to 100 μL of the reaction solution A containing the thus prepared GDP-Rac complex to a concentration of 3.6 μM, followed by equilibration at 30° C. for 2 minutes. After equilibration, 50 μL of the pretreated GEF was added for reaction at 30° C.
(§9) Changes in fluorescence intensity of Bodipy-FL-GTP were monitored during the reaction using an XS-N (Molecular Devices) or an Enspire spectrofluorometer (Perkin Elmer) (excitation wavelength: 488 nm, emission wavelength: 514 nm). The measured values were corrected so that the fluorescence intensity at the time that the reaction was initiated (0 seconds) was 0.
(§10) Then, an approximate curve (hyperbola) was obtained by plotting the calculated correction values on the y axis and the time (t) on the x axis using GraphPad Prism5 (GraphPad software), and the slope at t=0 to 10 seconds was considered to be an initial velocity of guanine nucleotide exchange reaction. The IC50 value was calculated taking the initial reaction velocity of the control, to which only a solvent (DMSO) was added, as 100%.

[2] = target: T2, DHR-2 domain of DOCK5 (Homo sapiens, UniProt Q9H7D0); test: in vitro GEF assay (Bodipy-FL-GTP loading of Rac); type: biochemical; settings: FIG. 11
T2 construct: Polypeptide fragments that correspond to the DHR-2 domain of DOCK1, DOCK2, or DOCK5; Histidine-SUMO (N); made in house; host or cells: E. coli Arctic express (DE3)
Excerpt: as §1, §2, §3, §4, §5, §6, §7, §8, §9, §10

[3] = target: T3, DHR-2 domain of DOCK2 (Homo sapiens, UniProt Q92608); test: in vitro GEF assay (Bodipy-FL-GTP loading of Rac); type: biochemical; settings: FIG. 11
T3 construct: Polypeptide fragments that correspond to the DHR-2 domain of DOCK1, DOCK2, or DOCK5; Histidine-SUMO (N); made in house; host or cells: E. coli Arctic express (DE3)
T3 sequence (Q92608 1211-1622 limits assumed): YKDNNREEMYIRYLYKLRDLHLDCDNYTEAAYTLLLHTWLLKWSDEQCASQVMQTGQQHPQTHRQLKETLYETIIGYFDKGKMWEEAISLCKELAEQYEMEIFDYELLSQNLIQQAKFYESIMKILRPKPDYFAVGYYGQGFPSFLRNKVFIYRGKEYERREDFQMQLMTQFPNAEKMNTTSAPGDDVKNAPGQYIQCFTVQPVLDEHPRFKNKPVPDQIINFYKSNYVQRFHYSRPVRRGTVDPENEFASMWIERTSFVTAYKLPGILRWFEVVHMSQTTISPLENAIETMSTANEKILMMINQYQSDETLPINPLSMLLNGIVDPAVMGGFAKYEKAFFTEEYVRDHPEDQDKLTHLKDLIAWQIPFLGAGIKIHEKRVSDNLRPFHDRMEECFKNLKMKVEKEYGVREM
Excerpt: as §1, §2, §3, §4, §5, §6, §7, §8, §9, §10

[4] = test system: primary mouse embryonic fibroblasts (MEFs); test: inhibition of ruffle formation after PDGF stimulation; type: cell-based; settings: 1 hour pretreatment
Excerpt: Pharmacological Test 4 (Experiment on Inhibition of Ruffle Formation in Primary Mouse Embryonic Fibroblasts)
As disclosed in NPL 2, stimulation of primary mouse embryonic fibroblasts (MEFs) with a growth factor, such as PDGF, induces actin cytoskeletal remodeling, leading to the formation of two types of characteristic cellular membrane structures, peripheral ruffles and dorsal ruffles.
The peripheral ruffle and dorsal ruffle formation depends on Rac activation and requires the functions of DOCK1 and DOCK5. Importantly, it is known that the peripheral ruffle formation requires the functions of both DOCK1 and DOCK5 while the dorsal ruffle formation requires the function of DOCK1.
Therefore, the use of various pyridinone compounds in this assay system enables cell-level verification of DOCK1 selectivity.
Wild-type MEFs or MEFs from DOCK1-deficient (D1KO) mouse (obtained by the method disclosed in NPL 2) were suspended in DMEM (with 10% FBS) to a concentration of 2×10^4 cells/mL, and 150 μL of the resulting product was seeded on the glass portion of fibronectin-coated glass-bottom culture dishes.
After 36-hour culture at 37° C., the medium was changed to DMEM (serum free) containing 0.1% BSA, and 12-hour culture was performed to allow the cells to be serum-starved. Subsequently, the medium was changed to 100 μL of DMEM (serum free) containing DMSO in which each pyridinone compound or CPYPP was dissolved at a predetermined concentration, followed by pretreatment for 1 hour. A control was prepared using a culture medium to which DMSO was added alone. In all of the experiments, the final concentration of DMSO was adjusted to 0.2%.
Thereafter, 100 μL of DMEM that was warmed beforehand to 37° C. (serum free, containing 60 ng/mL of PDGF) was added to the above pretreated cells to stimulate the cells, followed by incubation at 37° C. for 7 minutes and further incubation at room temperature for 10 minutes in 150 μL of 4% paraformaldehyde solution to fix the cells. Then, PBS (containing 0.2% Triton X-100) was added to the fixed cells, and a 5-min incubation at room temperature was performed to permeabilize the cellular membranes. Thereafter, the cells were blocked with BSA, and the actin cytoskeleton was stained with Alexa Fluor 546-labeled phalloidin. Using a Zeiss LSM510 meta confocal laser scanning microscope, the number of cells in which peripheral ruffles and dorsal ruffles were formed was observed and counted.

[5] = test system: mouse lung carcinoma cell line (3LL); test: cellular invasion inhibition assay (Matrigel chamber); type: cell-based; settings: 3LL cells, 22 hours, compared to DMSO
Method: Pharmacological Test 2 (Cellular Invasion Inhibition Assay)
Three hundred microliters of a suspension of a mouse lung carcinoma cell line (3LL), a human fibrosarcoma cell line (HT-1080), or a human colon cancer cell line (DLD-1) in DMEM (serum free) was placed in the upper chamber with Matrigel (BD Biosciences) equilibrated with DMEM (serum free) for 120 minutes, while 500 μL of DMEM (with 10% FCS) was placed in the lower chamber. Each pyridinone compound or CPYPP dissolved at a predetermined concentration in DMSO was added to the culture media in both the upper and lower chambers. As a control, DMSO alone was added to the media. In all of the experiments, the final DMSO concentration was adjusted to 0.2%.
After the resulting products were cultured at 37° C. under 5% CO2 for 22 hours, the chambers were removed, and the culture media were removed. […] After staining, the inserts were cut out with a blade to prepare slides, and the cells were counted under an optical microscope.
The results were evaluated based on percent cell invasion (%: Invasion) and percent inhibition (%: inhibition). The percent cell invasion was obtained by converting the number of invading cells under each condition to percentage, taking the number of invading cells in the control, to which DMSO was added alone, as 100%; and the percent inhibition was obtained by deducting the percent cell invasion from 100.

T2 sequence (Q9H7D0 1231-1642 limits assumed): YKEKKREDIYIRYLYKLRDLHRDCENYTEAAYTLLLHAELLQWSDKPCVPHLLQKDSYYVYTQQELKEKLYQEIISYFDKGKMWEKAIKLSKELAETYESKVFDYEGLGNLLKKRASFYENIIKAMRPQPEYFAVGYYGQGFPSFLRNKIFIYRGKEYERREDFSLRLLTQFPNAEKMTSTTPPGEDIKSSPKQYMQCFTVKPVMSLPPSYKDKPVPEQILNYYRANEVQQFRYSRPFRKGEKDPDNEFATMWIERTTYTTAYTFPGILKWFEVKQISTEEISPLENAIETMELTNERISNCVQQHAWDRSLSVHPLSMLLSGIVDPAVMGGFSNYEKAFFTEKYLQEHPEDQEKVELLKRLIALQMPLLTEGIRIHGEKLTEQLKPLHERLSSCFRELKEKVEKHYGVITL

| SMILES | IC50 ([1]; FIG. 11) | selectivity of GEF inhibition to DOCK1 versus DOCK2 and DOCK5 ([1]; from IC50 values for DOCK1, DOCK2, DOCK5) | IC50 [2] | IC50 [3] | dorsal ruffle formation [4] | peripheral ruffle formation [4] | inhibition of cancer cell (3LL) invasion [5] |
| --- | --- | --- | --- | --- | --- | --- | --- |
| O=C1NN(c2ccccc2)C(=O)C1=CC=Cc1ccccc1Cl [CPYPP, reference compound] | 20 µM | no selectivity | 14.8 µM | 39 µM | inhibited both peripheral ruffle formation and dorsal ruffle formation | inhibited both peripheral ruffle formation and dorsal ruffle formation |  |
| O=C(Cn1cc(S(=O)(=O)N2CCCC2)ccc1=O)c1ccc(-c2ccc(C(F)(F)F)cc2)cc1 [TS-16, 1-(2-oxo-2-(4′-(trifluoromethyl)-[1,1′-biphenyl]-4-yl)ethyl)-5-(pyrrolidin-1-ylsulfonyl)pyridin-2(1H)-one] |  |  |  |  |  |  | significantly excellent inhibitory effect |
| Cc1cc(C(=O)Cn2cc(S(=O)(=O)N3CCCC3)ccc2=O)c(C)n1Cc1ccc(F)cc1 [Compound T-070444, 1-(2-(1-(4-fluorobenzyl)-2,5-dimethyl-1H-pyrrol-3-yl)-2-oxoethyl)-5-(pyrrolidin-1-ylsulfonyl)pyridin-2(1H)-one] |  |  |  |  | significantly inhibited | occurred in a similar manner to that of the control |  |
